We go through five compounds from ChEMBL document CHEMBL5729078, “Inhibitors of cysteine proteases and methods of use thereof” (2022).

The structures appear in SMILES notation.

A short description of this experiment: Evaluation of Antiviral Activity of Compounds Against Human Coronavirus (HCov) 229E and OC43 in the Cytopathic Effect (CPE) Assays: Compounds were assayed using standard methods against multiple coronaviral strains, including HCoV 229E and OC43 strains.
`N#C[C@H](C[C@@H]1CCCNC1=O)NC(=O)[C@H]1CC2(CN1C(=O)c1cc3cccc(Cl)c3[nH]1)CC(F)(F)C2` (single isomer, unassigned) returned an EC50 of under 2000 nM and a 50% inhibitory concentration (IC50) of under 2000 nM.
Regarding `COc1cccc2[nH]c(C(=O)N3CC4(CCC4)C[C@@H]3C(=O)N[C@H](C#N)C[C@@H]3CCCNC3=O)cc12` (single isomer, unassigned; isomer 2), the EC50 was under 2000 nM.
In turn, `COc1cccc2[nH]c(C(=O)N[C@@H](CC3CC3)C(=O)N[C@@]3(C#N)C[C@@H]4CC[C@@H]3[C@H]3C(=O)NC(=O)[C@@H]43)cc12` (single isomer, unassigned; isomer 1) came in with an IC50 of over 30000 nM.
Compound `N#C[C@H](C[C@@H]1CCCNC1=O)NC(=O)[C@@H]1CC2(CCCCC2)CN1C(=O)c1cc2ccc(Cl)cc2[nH]1` (single isomer, unassigned) gave an EC50 of under 2000 nM and a 50% inhibitory concentration (IC50) of under 2000 nM.
`CCCOc1cccc2[nH]c(C(=O)N[C@@H](CC(C)C)C(=O)N[C@H](C#N)C[C@@H]3CCNC3=O)cc12` came in with an EC50 of under 2000 nM.
